Measurements as given in patent US5574059A, “Treating disorders mediated by vascular smooth muscle cell proliferation” (priority 1995, dated 1996).
Like-named read-outs stand apart in the source and are kept apart here.

How the values were obtained:
[1] = Example I: patient with intermittent claudication, iliac artery plaques; type: in vivo, human; settings: over 30 days oral; idazoxan 50 and 75 mg/day, UK 14,304 125, naphazoline 125, cirazoline 75, agmatine 900 mg/day
From the text: A person presents with progressive symptoms of intermittent claudication in both legs.

[2] = tested on: rat aortic smooth muscle cells; test: serum-stimulated proliferation, 3H-thymidine incorporation into DNA; type: cell-based; settings: for IC50: Rattus norvegicus, read-out: 3H-thymidine incorporated (IC50)
Procedure: Inhibition of serum-stimulated proliferation of rat aortic smooth muscle cells is determined as follows: The antiproliferative effect of potential drug is determined by measuring the incorporation of ^3 H-thymidine into cellular DNA. Exposure of quiescent vascular smooth muscle cell to serum, which contains many growth factors, results in a large increase in cellular proliferation as measured by ^3 H-thymidine incorported into DNA. The inhibitory effect of potential drug on serum-stimulated proliferation is tested by adding a drug before the addition of serum and determining if the serum-stimulated proliferation is reduced. […] In that event, antagonizing of the antiproliferative effect of idazoxan is determined by adding antagonist before the addition of idazoxan to serum-stimulated vascular smooth muscle cells.
In this experiment, the proliferation of vascular smooth muscle cells was determined by measuring DNA replication. The incorporation of ^3 H-thymidine into DNA was used to measure the replication of DNA as described in Erlinge, D., et al, Am. J. Physiol. 265, H1089-H1097 (1993) which is incorporated herein by reference.
Rat aortic smooth muscle cells prepared as described in In Vitro Example 1 were plated into 24-well plates at a density of about 30,000 cells/well in 10% fetal calf serum (FCS). After 48 hours, the cells were starved in 0.5% FCS for another 48 hours to decrease proliferation and induce quiescence. The medium was replaced by serum-free medium 24 hours prior to addition of drug (drugs are described below) and 10% fetal calf serum or only 10% fetal calf serum in the case of the control. The cells were then incubated for 24 hours and ^3 H-thymidine (1 μCi/well) was added at hour 20. At the end of the 24 hour period, the medium was aspirated and the cells were washed three times with phosphate-buffered saline and twice with ice-cold trichloroacetic acid. Fixed cells were then solubilized in 0.2M NaOH and sonicated. A 100 μl aliquot was used for scintillation counting.

[3] = Example IV: patient with fibromuscular dysplasia of the renal artery, angioplasty; type: in vivo, human; settings: idazoxan 75 mg/day; UK 14,304 60, naphazoline 125, cirazoline 60, agmatine 900 mg/day
[4] = Example II: patient with narrowing of right common carotid artery, balloon angiography; type: in vivo, human; settings: idazoxan 50 or 75 mg/day two weeks before and 3 months after balloon angiography; UK 14,304 125, cirazoline 60, naphazoline 125, agmatine 900 mg/day
Procedure: A person presents with a history of intermittent brief episodes of transient monocular blindness in the right eye associated with clumsiness and weakness of the left arm and leg. Angiography indicates substantial narrowing of the right common carotid artery. They are with treated with idazoxan at a dosage of 50 or 75 mg/day for two weeks preceding balloon angiography and for 3 months thereafter.

[5] = Example V: patient with Type I diabetes mellitus, overgrowth of retinal vessels; type: in vivo, human; settings: idazoxan 75 mg/day; UK 14,304 60, naphazoline 125, cirazoline 60, agmatine 900 mg/day
From the text: A person with Type I diabetes mellitus and maintained on insulin presents with progressive symptoms of loss of visual acuity bilaterally with evidence on opthalmascopic examination of overgrowth of retinal vessels and hemorrhages.

[6] = Example III: patient with coronary artery disease, angioplasty; type: in vivo, human; settings: idazoxan 50 mg/day continued for 3 months; substitutes, dose not stated
Procedure: A person presents with the onset of chest pain on exertion. […] Ten days before angioplasty, the patient is begun on 75 or 100 mg/day of idazoxan. […] Treatment with 50 mg/day idazoxan is continued for 3 months.

I2 imidazoline receptors = test: inhibition of 3H-idazoxan (5 nM) binding to rat aortic smooth muscle cell membranes; settings: Table 2; 3H-idazoxan 5 nM; rat aortic smooth muscle cell membranes; read-out: Ki
Procedure: Binding to I2 imidazoline receptors is determined by the following assay. Membranes are prepared from cultured cells for ligand binding as described in Regunathan, S., et al, Biochem. Pharmacol. 45, 1667-1675 (1993) and Regunathan, S., et al, J. Neurosci. Res. 34, 681-688 (1993) and the disclosure in these on this is incorporated herein by reference. In particular, harvested rat aortic smooth muscle cells are homogenized in Hepes-sucrose buffer (pH 7.4) with a Teflon-glass homogenizer and centrifuged at 1000 × g for 10 minutes. The pellets are suspended in ice-cold Tris-HCl buffer (pH 7.7) with 5mM ethylene diamine tetracetic acid and homogenized using a Polytron (Brinkman Instruments) for 10 seconds. The homogenate is centrifuged at 40,000 × g for 30 minutes to produce a membrane pellet. The membrane pellet is washed three times by resuspending in buffer and re-centrifuging. The washed pellet is suspended in fresh Tris-HCl buffer (pH 7.4) to provide approximately 100 μg protein per assay tube. Binding assays are performed in Tris-HCl buffer (pH 7.7) using 5 nM of […]. Non-specific binding is defined by 100 μM of unlabelled idazoxan which will inhibit the specific binding of ^3 H-idazoxan. Thus the binding remaining in the presence 100 μM of idazoxan is due to non-specific binding and this will be substracted from total binding to calculate the specific binding. Following incubation at 25° C. for 30 minutes, reaction is terminated by rapid vacuum filtration over Whatman GF/B filters and washed with 10 ml of ice-cold buffer. Filters are suspended in scintillation fluid and radioactivity counted in a liquid scintillation counter. Membrane protein is assayed by Coomassie Blue method (Pierce) using bovine serum albumin as standard.
Determination of inhibition constant (Ki) for each drug is determined as follows: The binding of ^3 H-idazoxan to membranes of vascular smooth muscle cells is determined in the presence of 0.1 nM to 100 μM concentrations of potential drug. The percent inhibition of specific binding of ^3 H-idazoxan by each concentration is calculated and plotted against concentration. The data is analyzed by non-linear curve fitting program, LIGAND and the IC50 value for each potential drug is calculated. The affinity for each drug (Ki) for I2 imidazoline receptors is calculated using the formula Ki =IC50 /1+L/Kd where L is the concentration of ^3 H-idazoxan used for binding and Kd is the dissociation constant for ^3 H-idazoxan for I2 imidazoline receptors. The dissociation constant (Kd) is determined by Scatchard analysis of the saturation binding of ^3 H-idazoxan using the formula [formula] where B and F are the amount of bound and free ligand, respectively, and Bmax is the number of binding sites.
Primary cultures of rat-aortic smooth muscle cells were prepared by a modification (described in Erlinge, Do, et al, Am. J. Physiol. 265, H1089-1097, 1993) of the method of Meyer-Lehnert and Schrier (Meyer-Lehnert, H., et al, Hypertension 13,350-361, 1989), the disclosure of these cited articles being incorporated herein by reference. Briefly, rats were killed by anesthetic overdose and the aorta were removed and incubated with collagenase (2 mg/ml) in Dulbecco's modified Eagle's minimum essential medium (DMEM). The vessel was stripped of adventitia, cut longitudinally and the intima scraped away. After further collagenase treatment, the remaining tissue was passed 20 times through 18 and 16 gauge needles. The resulting cell suspension was centrifuged at 500 × g for 5 minutes and resuspended in DMEM containing penicillin (100 units/ml), streptomycin (100 μg/ml), 2 mM L-glutamine and 10% fetal calf serum. The suspended cells were plated in T-75 flasks, cultured until confluent, and subcultured in 100 mm plates. The confluent cells were harvested and membranes were prepared. Cell viability was determined by trypan blue exclusion.

[7] = 10% fetal calf serum stimulated

| SMILES | symptoms of intermittent claudication [1] | inhibition of vascular smooth muscle cell proliferation, in words [2, 7] | IC50 [2] [µM] | re-elevation of pressure / restenosis of the renal artery [3] | symptoms and restenosis of the vessel [4] | progression and visual symptoms [5] | symptoms / restenosis after angioplasty [6] | Ki (I2 imidazoline receptors) [µM] | IC50 ([2]; 10% fetal calf serum stimulated, 24 h) [µM] |
| --- | --- | --- | --- | --- | --- | --- | --- | --- | --- |
| NCCCCN=C(N)N [Agmatine, 4-(aminobutylguanidine)] | stabilization of symptoms | weakly inhibited | 340 ± 29 | comparable results, i.e., no restenosis | comparable results | comparable results, i.e., no restenosis | comparable results, i.e., no restenosis | 0.24 ± 0.025 |  |
| Brc1c(NC2=NCCN2)ccc2nccnc12 [UK 14,304, 5-bromo-N-(4,5-dihydro-1-H-imidazol-2-yl)-6-quinoxalinamine] | stabilization of symptoms | potently inhibited |  | comparable results, i.e., no restenosis | comparable results | comparable results, i.e., no restenosis | comparable results, i.e., no restenosis | 0.02 ± 0.0014 | 15.6 ± 2.8 |
